According to article PMC5844530, “Fosmetpantotenate (RE-024), a phosphopantothenate replacement therapy for pantothenate kinase-associated neurodegeneration: Mechanism of action and efficacy in nonclinical models” (PLoS ONE, 2018):
Values joined by “and” are separate entries in the source; they are usually repeats but may differ in a detail not shown here. Identical values can stand only once. “Also recorded” adds a separate entry of the source.

Columns and labels:
[1] = tested on: porcine brain endothelial cell (PBEC) co-culture model; assay: In vitro blood-brain barrier permeability (PBEC/rat astrocyte co-culture); settings: in words
Procedure: Permeability studies were performed after 2 days of co-culture with rat astrocytes. […] In each filter used for transport, a paracellular marker was included as an internal control to monitor the integrity of the cell monolayer. The day of the experiment, culture medium was removed and cells on Transwell inserts were pre-incubated for 30 min with Hank's Balanced Salt Solution (HBSS) containing 20 mM Hepes pH 7.4 and 0.1% bovine serum albumin (BSA). […] Aliquots from the basal compartment were taken after 1 h; fluorescence was measured using a fluorescence detector. The permeability coefficient of the total system was calculated as follows: P[cm/s]=Vd×ΔMr/A×Md×Δt Where:
To correct for the contribution of the porous polycarbonate membrane of the filter in the absence of cells, the permeability was also determined for the cell-free system. Contribution of the endothelial cell monolayer to the permeability of the cell and filter system was determined by the following equation: 1/Pe=1/Pt-1/Pf Where the total permeability of the system is denoted as Pt, the cell-free filter as Pf, and the endothelial cell layer alone as Pe. The total resistance of the system towards passage of a substance is composed of 2 resistances in series: that of the cell monolayer and that of the filter; permeability is estimated as 1/resistance [27]. […] Mass balance was determined based on the amount of compound recovered in the donor and receiver chamber at the end of the assay relative to the amount added to the donor chamber at time 0.

[2] = tested on: shRNA PanK2 knockdown human neuroblastoma IMR32 cells; assay: Intracellular CoA levels in shRNA PanK2 knockdown human neuroblastoma cells; type: cell-based; settings: for Area Ratio, biological replicates 1-3 / Area Ratio, Mean / CoASH Fold Increase, Mean: Figure 3 data; for Area Ratio, biological replicates 1-3: PANK2-/- cells; for CoASH Fold Increase, Mean: over vehicle (1.00); for CoASH Area ratio / Total CoA Area ratio: Figure 4 data, 1 µM fosmetpantotenate, each line a biological replicate (well), analyzed 3 times
Procedure: The in vitro model to evaluate the efficacy of fosmetpantotenate and analogs was developed using a human neuroblastoma IMR32 cell line (ATCC) with stable PanK2 knockdown through lentiviral-delivered shRNA [23]. […] Cells were cultured in minimal essential media (MEM; Invitrogen), supplemented with 10% fetal bovine serum, 2 mM glutamine, 1% penicillin-streptomycin, 1 mM sodium pyruvate, 1 mM non-essential amino acids, 1.5 g/L sodium bicarbonate, and 1 μg/mL puromycin. […] At the end of the time period, cells were harvested, counted, collected in a 15 mL falcon tube, and centrifuged at 200xg for 5 min at 4°C.
For all incubations, the supernatant was removed and the cell pellet was resuspended in 10 mL of ice-cold phosphate buffered saline. […] The supernatant (100 μL) was placed in a separate tube and dried under nitrogen at 20°C in the dark. Samples were reconstituted with ammonium acetate buffer (pH 5.1) containing dextrorphan (50 ng/mL) as the internal standard, stirred for 2 min, sonicated in an ultrasonic bath for 1 min, and stirred again for 1 min before liquid chromatography-tandem mass spectrometry (LC-MS/MS) analysis for determination of intracellular CoA levels. Intracellular CoA concentration was calculated considering an intracellular volume of 10^6 cells equal to 2 μL. The measurement of the intracellular volume of cultured cells was performed following the distribution of [^14C]urea and [^14C]mannitol with time.
Coenzyme A determinations: An Agilent 1100 high-performance liquid chromatography (HPLC) system with a CTC PAL autosampler was used. Samples were chromatographed on a Phenomenex Luna C18 column (50 x 2.0 mm; 5 μm), with a 0.2 mL/min flow rate and a […] injection volume in a 5 μL injection loop. The mobile phases were (A) 10 mM ammonium acetate in water and (B) acetonitrile:2-propanol (9:1; v:v). […] A Sciex API 4000 QTrap mass spectrometer, connected to the HPLC system in tandem, with an electrospray ionization source operating in the positive scanning mode, was used for multiple reaction monitoring (MRM). […] The statistical significance of the treatment was determined using a t-test.

[3] = Metabolic stability in monkey whole blood; type: in vitro ADME, cynomolgus monkey; settings: for Percentage Remaining: monkey whole blood, replicates 1 and 2, listed as Fosmetpantotenate Total
Procedure: Metabolic stability in blood and liver microsomes: Fosmetpantotenate or its individual diastereomers (5 μM, n = 2, 37°C) were incubated in mouse, rat, cynomolgus monkey, and human whole blood. […] Incubations of fosmetpantotenate or its individual diastereomers (1 μM, n = 2, 37°C) in pooled liver microsomes (0.25 mg protein/mL in 0.1 M phosphate buffer pH 7.4) were initiated with the addition of nicotinamide adenine dinucleotide phosphate (NADPH; 1 mM). Aliquots (100 μL) were obtained at 0, 5, 10, 20, and 40 min and added to 150 μL of 0.1% formic acid in acetonitrile-containing carbamazepine (0.5 μM) as an analytical internal standard, centrifuged, and the supernatants analyzed by LC-MS/MS.
(§1) Bioanalysis for determinations of analyte stability: Samples were analyzed using a benchtop tandem quadrupole detector (TQD) mass spectrometer (Waters Ltd, Centennial Park, Hertfordshire). […] Suitable retention and peak shape with separation of the 2 diastereomers were obtained. The chromatography column was a Phenomenex-Kinetex XB C18 (2.10 x 50 mm; 2.6 μm), with a 0.7 mL/min flow rate and a 2 μL injection volume. […] The gradient was initiated with 20% B and increased linearly, reaching 40% B at 0.6 min, followed by 50% B at 0.8 min and by 95% B at 0.9 min. Conditions were kept isocratic through 1.2 min, returned to starting conditions (20% B) at 1.25 min, and maintained at 20% B through 1.5 min before the next injection. Since fosmetpantotenate is a mixture of diastereomers which are resolved chromatographically, the fosmetpantotenate MRM area corresponds to the sum of the MRM areas of the individual diastereomers.
(§2) The percent of compound remaining was determined from the MRM area response in each sample relative to that in the T = 0 samples (normalized for internal standard). Natural log plots of the percent compound remaining over time were used to determine the t½ of compound disappearance using the relationship t½ = -0.693/λ, where λ is the slope of the natural logarithm of the percent compound remaining vs time curve.

[4] = Metabolic stability in human whole blood; type: in vitro ADME; settings: for Percentage Remaining: human whole blood, replicates 1 and 2, listed as Fosmetpantotenate Total
Procedure: Metabolic stability in blood and liver microsomes: Fosmetpantotenate or its individual diastereomers (5 μM, n = 2, 37°C) were incubated in mouse, rat, cynomolgus monkey, and human whole blood. Samples (50 μL) were taken at 0, 5, 15, 30, and 60 min. Incubations of fosmetpantotenate or its individual diastereomers (1 μM, n = 2, 37°C) in pooled liver microsomes (0.25 mg protein/mL in 0.1 M phosphate buffer pH 7.4) were initiated with the addition of nicotinamide adenine dinucleotide phosphate (NADPH; 1 mM). Aliquots (100 μL) were obtained at 0, 5, 10, 20, and 40 min and added to 150 μL of 0.1% formic acid in acetonitrile-containing carbamazepine (0.5 μM) as an analytical internal standard, centrifuged, and the supernatants analyzed by LC-MS/MS.
as §1, §2

## COC(=O)CCNC(=O)[C@H](O)C(C)(C)COP(=O)(N[C@@H](C)C(=O)OC)Oc1ccccc1 (mixture of isomers) [Fosmetpantotenate]
[1]
  blood-brain barrier permeability classification: permeable
[2]; 1 μM TID for 5 days
  change in the level of free CoA: little change; also recorded: little effect
[2]; compound conc 12.5 µM
  Area Ratio, biological replicates 1-3: 0.109 and 0.098 and 0.112
[2]; compound conc 25 µM
  Area Ratio, biological replicates 1-3: 0.141 and 0.129 and 0.135
[2]; compound conc 50 µM
  Area Ratio, biological replicates 1-3: 0.159 and 0.189 and 0.167
[2]; compound conc 100 µM
  Area Ratio, biological replicates 1-3: 0.157 and 0.186 and 0.139
[2]; compound conc 200 µM
  Area Ratio, biological replicates 1-3: 0.243 and 0.294 and 0.241
[2]; concentration 12.5 µM
  Area Ratio, Mean: 0.081
[2]; concentration 25 µM
  Area Ratio, Mean: 0.111
  CoASH Fold Increase, Mean: 1.25
[2]; concentration 50 µM
  Area Ratio, Mean: 0.141
  CoASH Fold Increase, Mean: 2.00
[2]; concentration 100 µM
  Area Ratio, Mean: 0.127
  CoASH Fold Increase, Mean: 2.27
[2]; concentration 200 µM
  Area Ratio, Mean: 0.216
  CoASH Fold Increase, Mean: 2.41
[2]; Day 1
  CoASH Area ratio: 0.0013 (2×) and 0.0014 and 0.0011 and 0.0012 (2×) and 0.0018 and 0.0019 (2×)
  Total CoA Area ratio: 0.0238 and 0.0248 and 0.0256 and 0.0250 and 0.0258 and 0.0229 and 0.0233 and 0.0235
[2]; Day 3
  CoASH Area ratio: 0.0035 and 0.0037 (2×) and 0.0024 and 0.0025 and 0.0026 and 0.0022 and 0.0023 (2×)
  Total CoA Area ratio: 0.0360 and 0.0361 and 0.0365 and 0.0359 and 0.0368 and 0.0185 and 0.0353 and 0.0367
[2]; Day 5
  CoASH Area ratio: 0.0029 and 0.0031 (2×) and 0.0024 (2×) and 0.0025 and 0.0019 and 0.0020 (2×)
  Total CoA Area ratio: 0.0314 and 0.0330 (2×) and 0.0343 and 0.0336 and 0.0342
[3]; monkey blood, 5 μM, 37°C, 60 min
  half-life at 5 μM: 41 min
[3]; 5 min
  Percentage Remaining: 79% and 108%
[3]; 15 min
  Percentage Remaining: 66% and 98%
[3]; 30 min
  Percentage Remaining: 45% and 79%
[3]; 60 min
  Percentage Remaining: 22% and 35%
[3]; 90 min
  Percentage Remaining: 15% and 35%
[3]; 120 min
  Percentage Remaining: 10% and 17%
[4]; human blood, 5 μM, 37°C, 60 min
  half-life at 5 μM: 67 min
[4]; 5 min
  Percentage Remaining: 103% and 90%
[4]; 15 min
  Percentage Remaining: 114% and 99%
[4]; 30 min
  Percentage Remaining: 77% and 71%
[4]; 60 min
  Percentage Remaining: 56% and 55%
